Experimental findings from ChEMBL document CHEMBL1144290, “Discovery and structure-activity relationships of novel selective norepinephrine and dual serotonin/norepinephrine reuptake inhibitors” (Bioorg Med Chem Lett, 2005) are described below.

Assay [1] can be described thus: Inhibitory constant against Serotonin transporter.
Assay [2] can be described thus: Inhibitory constant determined against Norepinephrine transporter.
Assay [3] addresses Sodium-dependent dopamine transporter (Homo sapiens) (UniProt Q01959). Description: Displacement of dopamine by the compound against dopamine transporter was determined at 1000 nM.
Assay [4] deals with Sodium-dependent serotonin transporter (Homo sapiens) (UniProt P31645). The assay can be described thus: Displacement of serotonin by the compound against serotonin transporter was determined.
Assay [5] in a line: Inhibitory constant against Dopamine transporter.

Structures are written as SMILES.

Sodium-dependent dopamine transporter (Homo sapiens), sequence (Q01959 whole entry): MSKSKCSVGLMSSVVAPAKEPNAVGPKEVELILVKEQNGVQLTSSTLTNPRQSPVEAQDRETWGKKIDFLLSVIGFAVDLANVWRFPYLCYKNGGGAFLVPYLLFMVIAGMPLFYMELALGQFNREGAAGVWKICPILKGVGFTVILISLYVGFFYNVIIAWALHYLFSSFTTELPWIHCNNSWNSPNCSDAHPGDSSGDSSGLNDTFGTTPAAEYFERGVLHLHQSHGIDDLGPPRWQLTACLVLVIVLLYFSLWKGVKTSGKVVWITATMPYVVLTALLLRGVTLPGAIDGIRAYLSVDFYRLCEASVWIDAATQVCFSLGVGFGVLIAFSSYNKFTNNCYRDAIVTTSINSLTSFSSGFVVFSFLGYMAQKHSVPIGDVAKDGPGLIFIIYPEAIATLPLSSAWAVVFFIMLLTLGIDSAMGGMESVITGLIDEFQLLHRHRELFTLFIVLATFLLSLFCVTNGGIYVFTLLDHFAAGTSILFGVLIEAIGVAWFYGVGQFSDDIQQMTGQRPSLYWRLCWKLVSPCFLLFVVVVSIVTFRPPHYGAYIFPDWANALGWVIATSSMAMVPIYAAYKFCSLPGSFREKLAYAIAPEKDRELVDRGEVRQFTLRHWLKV
Sodium-dependent serotonin transporter (Homo sapiens), sequence (P31645 whole entry, looked up): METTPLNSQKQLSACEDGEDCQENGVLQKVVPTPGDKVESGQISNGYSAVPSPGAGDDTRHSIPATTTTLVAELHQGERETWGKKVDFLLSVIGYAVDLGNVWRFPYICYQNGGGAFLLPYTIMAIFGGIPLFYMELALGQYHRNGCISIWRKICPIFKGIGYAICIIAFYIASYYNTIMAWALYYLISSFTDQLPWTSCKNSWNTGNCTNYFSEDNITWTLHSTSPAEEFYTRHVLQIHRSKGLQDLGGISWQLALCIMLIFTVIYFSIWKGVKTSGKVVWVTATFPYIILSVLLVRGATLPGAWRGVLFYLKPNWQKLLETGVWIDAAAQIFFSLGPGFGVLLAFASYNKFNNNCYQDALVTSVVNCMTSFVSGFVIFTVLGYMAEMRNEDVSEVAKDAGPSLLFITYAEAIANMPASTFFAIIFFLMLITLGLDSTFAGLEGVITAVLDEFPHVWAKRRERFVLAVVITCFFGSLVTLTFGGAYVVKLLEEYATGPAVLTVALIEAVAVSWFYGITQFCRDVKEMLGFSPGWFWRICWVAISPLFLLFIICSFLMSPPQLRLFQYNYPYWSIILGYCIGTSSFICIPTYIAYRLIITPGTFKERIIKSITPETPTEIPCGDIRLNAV

For the compound `Cc1cccc(S[C@@H](c2ccccc2)[C@@H]2CNCCO2)c1`, the Ki in assay [1] is 3.2 nM; in assay [2], 109 nM; in assay [3] it was over 200 nM.
For the compound `COc1ccccc1S[C@@H](c1ccccc1)[C@@H]1CNCCO1` (stereo in doubt; form 2) [listing 1 of 2 here], the Ki in assay [1] was found to be 1.5 nM; in assay [2], 24.6 nM.
The like results for `COc1ccccc1S[C@@H](c1ccccc1)[C@@H]1CNCCO1` (stereo in doubt; form 1) [listing 1 of 2 here] were, in that order, 66.2 nM and 1.7 nM.
In the case of `Cc1ccc(S[C@@H](c2ccccc2)[C@@H]2CNCCO2)cc1`, the Ki was 364 nM in assay [2], over 100 nM in assay [4] and over 200 nM in assay [3].
`COc1ccccc1S[C@@H](c1ccccc1)[C@@H]1CNCCO1` (stereo in doubt; form 1) [listing 2 of 2 here] came in with a Ki in assay [3] of over 200 nM.
In assay [3], `COc1ccccc1S[C@@H](c1ccccc1)[C@@H]1CNCCO1` (stereo in doubt; 14) [listing 1 of 2 here] returned a Ki of over 200 nM.
Consider `c1ccc(S[C@@H](c2ccccc2)[C@@H]2CNCCO2)cc1`, for which the Ki in assay [1] was 36 nM; in assay [2], 17.6 nM; in assay [5] it was 522 nM.
As to `COc1ccccc1S[C@@H](c1ccccc1)[C@@H]1CNCCO1` (stereo in doubt; 14) [listing 2 of 2 here], the Ki was found to be 1.2 nM in assay [1] and 10.7 nM in assay [2].
Regarding `Cc1ccccc1S[C@@H](c1ccccc1)[C@@H]1CNCCO1`, the Ki in assay [1] is 0.2 nM; in assay [2] it was 8.3 nM; in assay [5] it was 227 nM.
Take `COc1ccccc1S[C@@H](c1ccccc1)[C@@H]1CNCCO1` (stereo in doubt; form 2) [listing 2 of 2 here]: the Ki in assay [3] was over 200 nM.
Turning to `CCOc1ccccc1O[C@@H](c1ccccc1)[C@@H]1CNCCO1`, the Ki is over 100 nM in assay [4] and over 200 nM in assay [3].

What is called Ki is the dissociation constant of the complex between target and ligand, obtained from inhibition or displacement. A low value points to higher affinity.
